Assay results published in PMC7324975 (BMC Cancer, 2020).

Tests used:
CT26 cells = assay: WST1 cell viability assay; assay type: cell-based, mice; conditions: 24 h; for anti-tumor efficacy (cell viability), single use: C: 0 ~ 160 μM, R: 12.5 ~ 200 μM; for IC50: Mus musculus, WST1
Description: The mice colon cancer cell line, CT26, was provided by Johnpro Biotech (Taipei, Taiwan). The cells were maintained in ATCC-formulated RPMI-1640 Medium containing 10% heat-inactivated fetal bovine serum (FBS) and 1% antibiotic-antimycotic (GM) in a humidified incubator with 5% CO2 at 37 °C. […] The cell viability was determined through WST1 assay (Roche, Germany) after the 24-h treatment.

Caspase-3 = assay: Western blot of Caspase-3 cleavage form; assay type: cell-based, mice; conditions: CT26 cells, 3 h, single agents
Description: The CT26 cell lysates from the variety of the treatments were prepared using RIPA lysis buffer for immunoblotting of Cyclin D1 (Cell Signaling Technology, #92G2), Cyclin A (Santa Cruz Biotechnology, #sc-271,645), Hsp70 (Santa Cruz Biotechnology, #SC24), Caspase-3, and cleavage form of Caspase-3 (Cell Signaling Technology, #9662S). Western blot analysis was performed as previously reported.

SMILES	anti-tumor efficacy (cell viability), single use (CT26 cells)	IC50 (CT26 cells) [µM]	cleavage form of Caspase-3 (Caspase-3)
Oc1ccc(/C=C/c2cc(O)cc(O)c2)cc1 [Resveratrol, resveratrol]	dose-dependent	88.8 ± 1.07	increased
COc1cc(/C=C/C(=O)CC(=O)/C=C/c2ccc(O)c(OC)c2)ccc1O [Curcumin, curcumin]	dose-dependent	26.8 ± 1.06	increased
